Source: PubChem BioAssay AID463204 (Broad Institute, 2010)
Calls of active or inactive are those of the source.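 Rule for the calls: active = AC50 no more than ten times the top concentration tested, that is within one log above it; inconclusive = flat curve fit with activity between 30% and 70%, or invalid poor fit; inactive = AC50 beyond ten times the top tested dose.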

System: S. cerevisiae Mot1-301 ts growth rescue, BacTiter-Glo ATP luminescence
Experiment: restored Mot1-301 yeast growth at 38.5C – whole organism, S. cerevisiae, Mot1-301 ts mutant, luminescence, dose retest, SUMOylation pathway inhibitor project, confirmation (AID 463204);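 note: growth at restrictive 38.5 degrees C of Mot1-301 OY566 strain; actives raise luminescence by restoring growth of the ts mutant at high temperature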

Structure (SMILES) | AC50
CC(C)c1ccc(NC(=O)COc2nnc(-c3cccs3)c(-c3cccs3)n2)cc1 | > 42 µM (inactive)
COc1ccc(/C=C/C(=O)NC(=S)Nc2ccccn2)cc1 | > 42 µM (inactive)
CCN(CC)c1nc2c(c(=O)[nH]c(=O)n2C)n1CCOc1ccccc1 | > 42 µM (inactive)
CCOC(=O)C1(Cc2cccc(Cl)c2)CCCN(C(=O)CCOC)C1 (stereo unspecified) | > 42 µM (inactive)
Cc1ccccc1-n1ncc2c([N+](=O)[O-])cc([N+](=O)[O-])cc21 | 5.35 µM
CCOc1ccc(-c2nc(C#N)c(N3CCOCC3)o2)cc1 | > 42 µM (inactive)
O=S(=O)(Nc1ccc(-c2nc3cccnc3s2)cc1)c1cc(F)ccc1F | > 21 µM (inactive)
CC1=CC(C)(C)N2C(=O)C3(NCCc4c3[nH]c3ccccc43)c3cc(C)cc1c32 (stereo unspecified) | 5.51 µM
Cn1c(SCC(=O)N/N=C/c2ccc([N+](=O)[O-])s2)nnc1-c1ccc(Cl)cc1 | 10.2 µM
COc1ccc(NC2CCCN(C(=O)c3csc(C)n3)C2)cc1 (stereo unspecified) | > 42 µM (inactive)
Fc1ccc(-c2n[nH]c(=S)n2CC2CCCO2)cc1 (stereo unspecified) | > 42 µM (inactive)
Clc1cnc(Oc2ccc(Oc3ncc(Cl)cc3Cl)cc2)c(Cl)c1 | > 42 µM (inactive)
CC/C(=N\Nc1ccc([N+](=O)[O-])cc1)c1ccccc1 | > 42 µM (inactive)
O=C(O)C1C2CCCCC2=C2CCCCC2C1C(=O)c1ccccc1 (stereo unspecified) | 3.26 µM
O=C(NCC(=O)N(c1ccccc1)C(C(=O)NCC1CCCO1)c1ccccc1)c1cccs1 (stereo unspecified) | > 42 µM (inactive)
COc1ccccc1NC(=O)NCCc1c[nH]c2ccccc12 | > 42 µM (inactive)
O=C(NCC1CCN(Cc2ccccc2Cl)CC1)Nc1ccccc1F | > 42 µM (inactive)
CCN(CC)S(=O)(=O)c1ccc(C(=O)NCCc2cc3c(OC)ccc(OC)c3[nH]c2=O)cc1 | > 42 µM (inactive)
Cc1cc(NC(=O)c2ccccc2F)n(C(C)(C)C)n1 | > 42 µM (inactive)
COCCn1c(=O)[nH]c(=O)c2cc(C(=O)c3cc(Cl)ccc3O)cnc21 | > 42 µM (inactive)
COC(=O)Oc1ccc(/C=N/NS(=O)(=O)c2ccccc2)cc1OC | > 42 µM (inactive)
COc1cc2cc(C)c3nnc(SCC(=O)Nc4cc(C)on4)n3c2cc1OC | > 42 µM (inactive)
CCn1c(CSCc2ccc(F)cc2)nnc1SCC(=O)NCc1ccccc1 | > 42 µM (inactive)
Cc1c(C(=O)NC(C)c2ccc(-n3ccnc3)cc2)cccc1[N+](=O)[O-] (stereo unspecified) | > 42 µM (inactive)
COCC(=O)NNC(=O)c1ccccc1OC | > 42 µM (inactive)
CCn1c(SCc2nc3ccccc3s2)nnc1-c1ccccc1 | > 42 µM (inactive)

Structure (SMILES) | AC50
O=S(=O)(NCC1CCCN(Cc2ccccc2O)C1)c1cccc2cccnc12 (stereo unspecified) | > 42 µM (inactive)
COc1cc(OC)c(C(=O)N2CCN(c3ccccn3)CC2)cc1OC | > 42 µM (inactive)
CC(C)CCCN1CCN=C1Nc1ccccc1 | > 42 µM (inactive)
CCn1nccc1C(=O)Nc1ccccc1OC | > 42 µM (inactive)
CCCC(=O)NC(C)c1nc2ccccc2[nH]1 (stereo unspecified) | > 42 µM (inactive)
O=C(Nc1ccccc1N1CCOCC1)c1cc(Br)c(Br)s1 | > 42 µM (inactive)
C=CC(=O)NC1CC2CCC1(C)C2(C)C (stereo unspecified) | > 42 µM (inactive)
Cc1c(C(=O)OCC(=O)Nc2ccc(S(N)(=O)=O)cc2)oc2c1ccc1ccccc12 | > 42 µM (inactive)
O=C(Nc1cc(F)ccc1F)C1CCCO1 (stereo unspecified) | > 42 µM (inactive)
C=CCNC(=O)NC(=O)COC(=O)/C(C#N)=C/c1cc(C)n(CC(C)C)c1C | > 42 µM (inactive)
CC1(C)CC(=O)C2=C(C1)OC(N)=C(C#N)C21C(=O)N(CN2CCOCC2)c2ccccc21 (stereo unspecified) | > 42 µM (inactive)
CC(C)(C)NC(=O)C1Cc2ccccc2CN1S(=O)(=O)c1ccc(F)cc1 (stereo unspecified) | > 42 µM (inactive)
Cc1nn(CC(=O)Nc2ccccn2)c(C)c1[N+](=O)[O-] | > 42 µM (inactive)
CCCCSCCCNC(=O)Nc1cccc(OC)c1 | > 42 µM (inactive)
O=C1c2ccccc2S(=O)(=O)N1Cc1cc(=O)n2ccsc2n1 | > 42 µM (inactive)
CC(=O)N1c2ccc([N+](=O)[O-])cc2NC(=O)CC1C (stereo unspecified) | > 42 µM (inactive)
O=C(N/N=C/C(Br)=C/c1ccccc1)c1n[nH]c2c1CCC2 | 6.68 µM
CCOc1ccc(N(C(=O)C2CCCO2)C2C=CS(=O)(=O)C2)cc1 (stereo unspecified) | > 42 µM (inactive)
O=C(O)c1ccc(Cl)c(NCc2cccs2)c1 | > 42 µM (inactive)
CN(CCOc1ccc(Cl)cc1)CC(=O)Nc1ccc(OC(F)F)cc1 | > 42 µM (inactive)
O=[N+]([O-])c1cc([N+](=O)[O-])c2cc3ccccc3nc2c1 | 2.63 µM
COC(=O)c1ccc(CN2CCN(C3CCCCC3)C(CCO)C2)cc1 (stereo unspecified) | > 42 µM (inactive)
CCCCCC(=O)NNC1=NCC(Cc2cccc(Cl)c2)S1 (stereo unspecified) | > 42 µM (inactive)
CCSc1nc2ccccc2c(=O)n1C1CCOC(C)(C)C1 (stereo unspecified) | > 42 µM (inactive)
CS(=O)(=O)N(CC(=O)N1CCCC1)c1cccc(Cl)c1Cl | > 42 µM (inactive)
O=C(OCC(=O)N1CCN(c2ccccc2)CC1)c1nc(Cl)ccc1Cl | > 42 µM (inactive)

Structure (SMILES) | AC50
O=C1CCCC2=C1C(c1ccncc1)c1c(nc(SCc3ccccc3Cl)[nH]c1=O)N2 (stereo unspecified) | > 42 µM (inactive)
Cc1ccc(S(=O)(=O)NCc2ccc(C(=O)N3CCN(c4ccccn4)CC3)cc2)cc1 | > 42 µM (inactive)
Cc1c(NP(=O)(c2ccc(Br)cc2)c2ccc(Br)cc2)c(=O)n(-c2ccccc2)n1C | > 42 µM (inactive)
O=C(NNC(=O)c1csc(N2CCOCC2)n1)c1ccc(Cl)nc1 | > 42 µM (inactive)
O=C1CN(C(=O)COC(=O)c2cccc(S(=O)(=O)NCc3ccccc3)c2)c2ccccc2N1 | > 42 µM (inactive)
O=C(COC(=O)CSc1ccc([N+](=O)[O-])cc1)NC1CCCCCCC1 | > 42 µM (inactive)
COc1ccc2c(c1)[C@H]1[C@H](CO2)[C@H](c2ccccc2)[C@]2(C)C(=O)Nc3cc(C)ccc3C(=O)N12 | 5.3 µM
C/C(N)=C(/C#N)C(=O)CSc1nnc(-c2ccccc2)n1C | > 42 µM (inactive)
CCCNc1nc2ccccc2c(=O)[nH]1 | > 42 µM (inactive)
COCCCn1c2nc3ccccc3nc2c2c(=O)n(Cc3ccc(Cl)cc3)cnc21 | > 42 µM (inactive)
CCN1C(=O)N(C)[C@@H](c2ccccc2)C(C(=O)OC)=C1C | > 42 µM (inactive)
COC(=O)CN1C(=O)c2cccc3cccc1c23 | > 42 µM (inactive)
CCCN(CCC)C(=O)CSc1ncccc1C(=O)O | > 42 µM (inactive)
CC(C)c1cc(C(=O)N/N=C/C(Br)=C/c2ccccc2)n[nH]1 | 6.05 µM
COc1ccc(C(=O)NCCSc2ccc(C)cc2)cc1 | > 42 µM (inactive)
CCc1c(C(=O)N2CCN(c3ccccc3F)CC2)[nH]c(C)c1C(C)=O | > 42 µM (inactive)
CN(C)CC/C=C1\c2ccccc2Sc2ccc(Cl)cc21 | > 42 µM (inactive)
Cc1nc2ccccc2n(CC(=O)Nc2cc(Cl)cc(Cl)c2)c1=O | > 42 µM (inactive)
CCN(CC)c1ccc(Nc2cc3n(c(=O)n2)CCc2cc(OC)c(OC)cc2-3)cc1 | > 42 µM (inactive)
CNC(=O)c1ccccc1S(=O)c1ccccc1COC(C)=O (stereo unspecified) | > 42 µM (inactive)
O=C(CCSc1ccccc1)Nc1ncccn1 | > 42 µM (inactive)
N#CC1=C(N)Nc2ncnn2C1c1ccc([N+](=O)[O-])cc1 (stereo unspecified) | > 42 µM (inactive)
Cc1cc(C(F)F)n2ncc(C(=O)NCCc3ccc(Cl)cc3)c2n1 | > 42 µM (inactive)
CCOc1ccccc1/C=N\Nc1cnn(Cc2ccccc2)c(=O)c1Cl | > 42 µM (inactive)
CC(Cc1ccc(O)c(O)c1)C(C)Cc1ccc(O)c(O)c1 (stereo unspecified) | > 42 µM (inactive)
CCOc1ccc(C(=O)Nc2ccc(N3CCN(C)CC3)cc2)cc1[N+](=O)[O-] | > 42 µM (inactive)

Structure (SMILES) | AC50
COc1cccc(Cn2cnc3c(NS(=O)(=O)c4cccc(Cl)c4Cl)c(C)c(C)cc32)c1 | > 110 µM (inactive)
Cc1cccc(CS(=O)(=O)Cc2ccc(C(=O)NCC3CCCO3)o2)c1 (stereo unspecified) | > 42 µM (inactive)
N#CC(C#N)=C1C=CC=CN1/C(=C\c1ccccc1Cl)C(=O)c1ccccc1 | 2.03 µM
NS(=O)(=O)c1ccc(CCNC(=O)c2ccc([N+](=O)[O-])s2)cc1 | > 42 µM (inactive)
COc1cc(S(=O)(=O)N2CCN(c3ccccc3)CC2)ccc1F | > 42 µM (inactive)
O=C(O)c1cc(S(=O)(=O)Nc2ccc(OCc3ccccc3)cc2)ccc1Br | > 42 µM (inactive)
COC(=O)C1C(c2ccc(OC)c(OC)c2)NC(c2ccc(OC)c(OC)c2)C(C(=O)OC)S1(=O)=O (stereo unspecified) | > 42 µM (inactive)
O=C(NC1CCCCCC1)C1CCN(S(=O)(=O)c2cccc3cccnc23)CC1 | > 42 µM (inactive)
O=C(CCCc1nc(-c2ccc(Cl)cc2)no1)NC1CCCCC1 | > 42 µM (inactive)
CC(C)c1ccc(C2C(C(=O)c3ccco3)=C(O)C(=O)N2CCN2CCOCC2)cc1 (stereo unspecified) | > 42 µM (inactive)
Cc1cc(C)n(-c2ccc(C(=O)C(C#N)c3nc4ccccc4n3C)cc2)n1 (stereo unspecified) | > 42 µM (inactive)
CN(C)/C=N/NC(=O)c1ccccc1 | > 42 µM (inactive)
Cc1[nH]oc(=O)c1N=Nc1ccccc1 | 30.6 µM
COc1ccc(N2C(=O)CC(NCc3cccs3)C2=O)cc1 (stereo unspecified) | > 42 µM (inactive)
COC(=O)CCC(=O)OC1(C)C(=O)C2=CN(CCc3c[nH]c4ccccc34)C(c3ccc(OC)cc3)=CC2=C(Br)C1=O (stereo unspecified) | > 42 µM (inactive)
O=C(CSc1nccc(=O)[nH]1)c1cc2ccccc2o1 | > 42 µM (inactive)
COc1cc(C)ccc1OCCCOc1ccccc1Br | > 42 µM (inactive)
CCc1ccccc1NC(=O)N[C@@H](C)C(=O)OC | > 42 µM (inactive)
Cc1sc2ncnc(Nc3ccccc3)c2c1C | 29.7 µM
CCOc1ccc(C(=O)Nc2ccc(C(F)(F)F)n(C)c2=O)cc1 | > 42 µM (inactive)
CC(C)(C)CC(=O)Nc1cc(S(=O)(=O)N2CCOCC2)ccc1N1CCCC1 | > 42 µM (inactive)
COc1ccc(OCC(=O)O/N=C(\N)Cc2ccc(Cl)cc2)cc1 | > 42 µM (inactive)
Cc1ccc(S(=O)(=O)N[C@@H](Cc2ccccc2)C(=O)CCl)cc1 | 1.47 µM
